Assay results taken from patent US6359176B1, “Cationic surfactants, process for producing the same and utilization thereof” (Matsumoto Yushi-Seiyaku Co., Ltd., priority 1999, dated 2002).

What was measured:
[1] = Determination of craft point (temperature at which 1 wt % surfactant dissolves clearly, visual inspection); type: physicochemical; conditions: 1 weight % aqueous solution in pure water
Description: (§1) Determination of craft point, critical micelle concentration and surface tension
(§2) An aqueous solution of 1 weight % of a surfactant (solution with pure water) was prepared and the craft point, at which a surfactant dissolves clearly, was determined with visual inspection. And the aqueous solution of several surfactants with varied concentration was prepared with pure water and their surface tension at 25° C. was determined.

[2] = Determination of critical micelle concentration and surface tension of aqueous surfactant solutions; type: physicochemical; conditions: pure water, 25° C.; for Surface tension γ cmc (mN/m): at cmc
Description: as §1, §2

activated sludge = assay: Biodegradability: degradation by microorganisms with degradation tester and closed system oxygen consumption meter; conditions: 14 days biodegradability test
Description: The biodegradability of the derivatives was determined by checking the degree of degradation of those chemicals by microorganisms (procedures defined in Japanese domestic low for regulation of chemical substances and in OECD) with a degradation tester and closed system oxygen consumption meter. The test was continued for 14 days and the biodegradability data was calculated into percentage.
The 100-% degradability in the testing means that whole of a test sample has been degraded into inorganic substances such as carbon dioxide.

Structure (SMILES)	Craft point (1 wt %, ° C.) [1] [°C]	Critical micelle concentration cmc [2] [mol/L]	Surface tension γ cmc (mN/m) [2] [mN/m]	Effect on activated sludge (in words) (activated sludge)
CCCCCCCCCCCCCCCCCC(=O)OCC(O)C(O)C(O)C(O)C[N+](C)(C)C.[I-] (stereo not drawn) [Monostearate derivative]	40.5			
CCCCCCCCCCCC(=O)OCC(O)C(O)C(O)C(O)C[N+](C)(C)C.[Cl-] (stereo not drawn) [Monolaurate derivative]	<0	0.0012	30.2	
CCCCCCCCCCCCCCCC(=O)OCC(O)C(O)C(O)C(O)C[N+](C)(C)C.[Cl-] (stereo not drawn) [Monopalmitate derivative]	33.5			
CCCCCCCCCCCCCCCC[N+](C)(C)C.[Br-] [Cetyl trimethyl ammonium bromide]				inhibited the propagation of activated sludge
CCCCCCCCCCCCCC(=O)OCC(O)C(O)C(O)C(O)C[N+](C)(C)C.[I-] (stereo not drawn) [Monomyristate derivative]	<0	0.00034	34.2	
